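Here, GI50 denotes the concentration required for 50% inhibition of growth. The concentration for full growth arrest is given as TGI.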
What was measured:
Experiment in all cases: NCI tumour cell line growth inhibition, 384-well format
UACC-257 melanoma = test system: UACC-257 melanoma
SF-295 CNS = test system: SF-295 CNS
COLO 205 colon = test system: COLO 205 colon
OVCAR-3 ovarian = test system: OVCAR-3 ovarian
NCI-H460 NSCLC = test system: NCI-H460 NSCLC
HCT-116 colon = test system: HCT-116 colon
SNB-19 CNS = test system: SNB-19 CNS
HOP-62 NSCLC = test system: HOP-62 NSCLC
U251 glioblastoma = test system: U251 glioblastoma
SF-539 CNS = test system: SF-539 CNS
HL-60(TB) leukemia = test system: HL-60(TB) leukemia
RPMI-8226 leukemia = test system: RPMI-8226 leukemia
NCI/ADR-RES ovarian = test system: NCI/ADR-RES ovarian
MDA-MB-231 breast = test system: MDA-MB-231 breast
SF-268 CNS = test system: SF-268 CNS
SNB-75 CNS = test system: SNB-75 CNS
MDA-MB-468 breast = test system: MDA-MB-468 breast
MALME-3M melanoma = test system: MALME-3M melanoma
SN12C renal = test system: SN12C renal
SK-MEL-5 melanoma = test system: SK-MEL-5 melanoma
OVCAR-5 ovarian = test system: OVCAR-5 ovarian
ACHN renal = test system: ACHN renal
IGROV1 ovarian = test system: IGROV1 ovarian
MCF7 breast = test system: MCF7 breast
EKVX NSCLC = test system: EKVX NSCLC
UACC-62 melanoma = test system: UACC-62 melanoma
M14 melanoma = test system: M14 melanoma
RXF 393 renal = test system: RXF 393 renal
SR leukemia = test system: SR leukemia
DU-145 prostate = test system: DU-145 prostate
HCC-2998 colon = test system: HCC-2998 colon
NCI-H322M lung = test system: NCI-H322M lung
KM12 colon = test system: KM12 colon
HS 578T breast = test system: HS 578T breast
MDA-MB-435 melanoma = test system: MDA-MB-435 melanoma
CAKI-1 renal = test system: CAKI-1 renal
OVCAR-8 ovarian = test system: OVCAR-8 ovarian
A549 NSCLC = test system: A549 NSCLC
HT29 colon = test system: HT29 colon
HOP-92 NSCLC = test system: HOP-92 NSCLC
NCI-H23 lung = test system: NCI-H23 lung
HCT-15 colon = test system: HCT-15 colon
SK-MEL-28 melanoma = test system: SK-MEL-28 melanoma
BT-549 breast = test system: BT-549 breast
PC-3 prostate = test system: PC-3 prostate
NCI-H522 lung = test system: NCI-H522 lung
T-47D breast = test system: T-47D breast
OVCAR-4 ovarian = test system: OVCAR-4 ovarian
LOX IMVI melanoma = test system: LOX IMVI melanoma
TK-10 renal = test system: TK-10 renal
SK-OV-3 ovarian = test system: SK-OV-3 ovarian
MOLT-4 leukemia = test system: MOLT-4 leukemia
A498 renal = test system: A498 renal

With `Nc1ccc(-c2ccc3ncc4ccc(=O)n(-c5cccc(C(F)(F)F)c5)c4c3c2)cn1` the GI50 (UACC-257 melanoma) was 25.5 nM, the TGI (UACC-257 melanoma) was 199 nM and the GI50 (SF-295 CNS) was < 10 nM. It also gave a TGI (SF-295 CNS) of 196 nM, a GI50 (COLO 205 colon) of 20.5 nM and a TGI (COLO 205 colon) of 103 nM. For the same compound, the GI50 (OVCAR-3 ovarian) was < 10 nM, the TGI (OVCAR-3 ovarian) was 293 nM and the GI50 (NCI-H460 NSCLC) was < 10 nM. It also gave a TGI (NCI-H460 NSCLC) of 71 nM, a GI50 (HCT-116 colon) of 25.5 nM and a TGI (HCT-116 colon) of 242 nM. The GI50 (SNB-19 CNS) was 52.3 nM, the TGI (SNB-19 CNS) was 2380 nM and the GI50 (HOP-62 NSCLC) was < 10 nM. For the same compound, the TGI (HOP-62 NSCLC) was 46.3 nM, the GI50 (U251 glioblastoma) was 30.1 nM and the TGI (U251 glioblastoma) was 1190 nM. For the same compound, the GI50 (SF-539 CNS) was < 10 nM, the TGI (SF-539 CNS) was 389 nM and the GI50 (HL-60(TB) leukemia) was 17.9 nM. For the same compound, the TGI (HL-60(TB) leukemia) was 128 nM, the GI50 (RPMI-8226 leukemia) was < 10 nM and the TGI (RPMI-8226 leukemia) was < 10 nM. The GI50 (NCI/ADR-RES ovarian) was 26.1 nM, the TGI (NCI/ADR-RES ovarian) was 1070 nM and the GI50 (MDA-MB-231 breast) was < 10 nM. For the same compound, the TGI (MDA-MB-231 breast) was 12500 nM, the GI50 (SF-268 CNS) was 34.5 nM and the TGI (SF-268 CNS) was 1140 nM. For the same compound, the GI50 (SNB-75 CNS) was < 10 nM, the TGI (SNB-75 CNS) was 1150 nM and the GI50 (MDA-MB-468 breast) was < 10 nM. The TGI (MDA-MB-468 breast) was 171 nM, the GI50 (MALME-3M melanoma) was < 10 nM and the TGI (MALME-3M melanoma) was 151 nM. The GI50 (SN12C renal) was < 10 nM, the TGI (SN12C renal) was 86 nM and the GI50 (SK-MEL-5 melanoma) was < 10 nM. For the same compound, the TGI (SK-MEL-5 melanoma) was 24.5 nM, the GI50 (OVCAR-5 ovarian) was 13.4 nM and the TGI (OVCAR-5 ovarian) was 67.3 nM. The GI50 (ACHN renal) was < 10 nM, the TGI (ACHN renal) was 168 nM and the GI50 (IGROV1 ovarian) was < 10 nM. For the same compound, the TGI (IGROV1 ovarian) was < 10 nM, the GI50 (MCF7 breast) was < 10 nM and the TGI (MCF7 breast) was 2740 nM. The GI50 (EKVX NSCLC) was < 10 nM, the TGI (EKVX NSCLC) was 62.9 nM and the GI50 (UACC-62 melanoma) was < 10 nM. The TGI (UACC-62 melanoma) was 565 nM, the GI50 (M14 melanoma) was < 10 nM and the TGI (M14 melanoma) was 136 nM. The GI50 (RXF 393 renal) was 17.5 nM, the TGI (RXF 393 renal) was 1400 nM and the GI50 (SR leukemia) was < 10 nM. For the same compound, the TGI (SR leukemia) was < 10 nM, the GI50 (DU-145 prostate) was < 10 nM and the TGI (DU-145 prostate) was 378 nM. The GI50 (HCC-2998 colon) was 10.5 nM, the TGI (HCC-2998 colon) was 318 nM and the GI50 (NCI-H322M lung) was < 10 nM. The TGI (NCI-H322M lung) was 46.9 nM, the GI50 (KM12 colon) was < 10 nM and the TGI (KM12 colon) was 2470 nM. The GI50 (HS 578T breast) was < 10 nM, the TGI (HS 578T breast) was 50.8 nM and the GI50 (MDA-MB-435 melanoma) was 10.2 nM. For the same compound, the TGI (MDA-MB-435 melanoma) was 91.4 nM, the GI50 (CAKI-1 renal) was 10.5 nM and the TGI (CAKI-1 renal) was 1080 nM. The GI50 (OVCAR-8 ovarian) was 11.4 nM, the TGI (OVCAR-8 ovarian) was 1370 nM and the GI50 (A549 NSCLC) was < 10 nM. For the same compound, the TGI (A549 NSCLC) was 1070 nM, the GI50 (HT29 colon) was 45.6 nM and the TGI (HT29 colon) was 1320 nM. It also gave a GI50 (HOP-92 NSCLC) of 26.1 nM, a TGI (HOP-92 NSCLC) of 1000 nM and a GI50 (NCI-H23 lung) of 23.2 nM. For the same compound, the TGI (NCI-H23 lung) was 400 nM, the GI50 (HCT-15 colon) was < 10 nM and the TGI (HCT-15 colon) was 1080 nM. For the same compound, the GI50 (SK-MEL-28 melanoma) was 26 nM, the TGI (SK-MEL-28 melanoma) was 14200 nM and the GI50 (BT-549 breast) was < 10 nM. For the same compound, the TGI (BT-549 breast) was 35.8 nM, the GI50 (PC-3 prostate) was < 10 nM and the TGI (PC-3 prostate) was 122 nM. For the same compound, the GI50 (NCI-H522 lung) was < 10 nM, the TGI (NCI-H522 lung) was 168 nM and the GI50 (T-47D breast) was < 10 nM. The TGI (T-47D breast) was 1310 nM, the GI50 (OVCAR-4 ovarian) was < 10 nM and the TGI (OVCAR-4 ovarian) was 38.9 nM. For the same compound, the GI50 (LOX IMVI melanoma) was < 10 nM, the TGI (LOX IMVI melanoma) was 33.4 nM and the GI50 (TK-10 renal) was < 10 nM. For the same compound, the TGI (TK-10 renal) was 40.2 nM, the GI50 (SK-OV-3 ovarian) was < 10 nM and the TGI (SK-OV-3 ovarian) was 1020 nM. For the same compound, the GI50 (MOLT-4 leukemia) was < 10 nM, the TGI (MOLT-4 leukemia) was 28.5 nM and the GI50 (A498 renal) was < 10 nM. For the same compound, the TGI (A498 renal) was 13.2 nM.

Source: PubChem BioAssay (NCI)
